Results reported in patent publication US6642222B2, “Pyrano, piperidino, and thiopyrano compounds and methods of use” (Abbott Laboratories, priority 1998, dated 2003).

Tests used:
[1] = tested on: Guinea-Pig Bladder (GPB) Cells; experiment: Membrane Hyperpolarization (MHP) assay, DiBAC(4)3 / FLIPR; settings: Cavia porcellus; for EC50: membrane hyperpolarization, GPB cells; for Emax: read-out: Maximal Response (% P1075), maximal steady-state hyperpolarization, normalized to 10 μM P1075 (100%)
Protocol: Compounds were evaluated for potassium channel opening activity using primary cultured guinea-pig urinary bladder (GPB) cells.
For the preparation of urinary bladder smooth muscle cells, urinary bladders were removed from male guinea-pigs (Hartley, Charles River, Wilmington, Mass.) weighing 300-400 grams (g) and placed in ice-cold Ca^2+-free Krebs solution (Composition, millimolar (mM): KCl, 2.7; KH2PO4, 1.5; NaCl, 75; Na2HPO4, 9.6; Na2HPO4.7H2O, 8; MgSO4, 2; glucose, 5; HEPES, 10; pH 7.4). Cells were isolated by enzymatic dissociation (Klockner, U. and Isenberg, G., Pflugers Arch. (1985), 405, 329-339). The bladder was cut into small sections and incubated in 5 milliliters (mL) of the Kreb's solution containing 1 milligram per milliliter (mg/mL) of collagenase (Sigma, St. Louis, Mo.) and 0.2 mg/mL of pronase (Calbiochem, La Jolla, Calif.) with continuous stirring in a cell incubator for 30 minutes. The mixture was then centrifuged at 1300× g for 5 minutes, and the pellet resuspended in Dulbecco's phosphate buffered saline (PBS) (GIBCO, Gaithersburg, Md.) and recentrifuged to remove residual enzyme. The cell pellet was resuspended in 5 mL growth media (composition: Dulbecco's modified Eagle's medium supplemented with 10% fetal bovine serum, 100 units/mL penicillin, 100 units/mL streptomycin and 0.25 mg/mL amphotericin B) and further dissociated by pipetting the suspension through a flame-polished Pasteur pipette and passing it through a polypropylene mesh membrane (Spectrum, Houston, Tex.). The cell density was adjusted to 100,000 cells/mL by resuspension in growth media. Cells were plated in clear-bottomed black 96-well plates (Packard) for membrane potential studies at a density of 20,000 cells/well and maintained in a cell incubator with 90% air: 10% CO2 until confluent. Cells were confirmed to be of smooth muscle type by cytoskeletal staining using a monoclonal mouse anti human-α-smooth muscle actin (Biomeda, Foster City, Calif.).
Functional activity at potassium channels was measured by evaluating changes in membrane potential using the bis-oxonol dye DiBAC(4)3 (Molecular Probes) in a 96-well cell-based kinetic assay system using a Fluorescent Imaging Plate Reader (FLIPR) (K. S. Schroeder et al., J. Biomed. Screen., v. 1 pp. 75-81 (1996)). DiBAC(4)3 is an anionic potentiometric probe which partitions between cells and extracellular solution in a membrane potential-dependent manner. With increasing membrane potential (for example, K^+ depolarization), the probe further partitions into the cell; this is measured as an increase in fluorescence due to dye interaction with intracellular lipids and proteins. Conversely, decreasing membrane potential (hyperpolarization by potassium channel openers) evokes a decrease in fluorescence.
Confluent guinea-pig urinary bladder cells cultured in black clear-bottomed 96-well plates were rinsed twice with 200 mL assay buffer (composition, mM: HEPES, 20; NaCl, 120; KCl, 2; CaCl2, 2; MgCl2, 1; glucose, 5; pH 7.4 at 25° C.) containing 5 μM DiBAC(4)3 and incubated with 180 mL of the buffer in a cell incubator for 30 minutes at 37° C. to ensure dye distribution across the membrane. After recording the baseline fluorescence for 5 minutes, the reference or test compounds, prepared at 10 times the concentration in the assay buffer, were added directly to the wells. Changes in fluorescence were monitored for an additional 25 minutes.
Routinely, five concentrations of P1075 or test compounds (log or half-log dilutions) were evaluated and the maximal steady-state hyperpolarization values (expressed as % relative to P1075) plotted as a function of concentration. The EC50 (concentration that elicites 50% of the maximal response for the test sample) values were calculated by non-linear regression analysis using a four parameter sigmoidal equation. The maximal micromolar EC50 response of each compound (expressed as % relative to P1075) is reported.

Compound: CCC1OC(=O)C2=C1NC1=C(C(=O)COC1)C2c1ccc(F)c(Br)c1 (single isomer, unassigned) [Example 96, 9-(3-bromo-4-fluorophenyl)-3-ethyl-5,9-dihydro-3H-furo[3,4-b]pyrano[4,3-e]pyridine-1,8(4H,7H)-dione]
- melting point: 246 to 248 °C

Compound: CCCC1OC(=O)C2=C1NC1=C(C(=O)COC1)C2c1ccc(F)c(Br)c1 (single isomer, unassigned) [Example 97, 9-(3-bromo-4-fluorophenyl)-3-propyl-5,9-dihydro-3H-furo[3,4-b]pyrano[4,3-e]pyridine-1,8(4H,7H)-dione]
- melting point: 206 to 208 °C

Compound: CCCC1OC(=O)C2=C1NC1=C(C(=O)COC1)C2c1ccc(F)c(Br)c1 (single isomer, unassigned) [Example 98, 9-(3-bromo-4-fluorophenyl)-3-propyl-5,9-dihydro-3H-furo[3,4-b]pyrano[4,3-e]pyridine-1,8(4H,7H)-dione]
- melting point: 219 to 220 °C

Compound: CN1CC(=O)C2=C(C1)NC1=C(C(=O)CCC1)C2c1ccc(F)c(Br)c1.Cl (stereo not shown) [Example 3, 5-(3-bromo-4-fluorophenyl)-2-methyl-2,3,5,8,9,10-hexahydrobenzo[b][1,7]naphthyridine-4,6(1H, 7H)-dione Hydrochloride]
- EC50 [1]: 27000 nM
- Emax [1]: 41%
- melting point: 248 to 250 °C

Compound: O=C1COCC2=C1C(c1ccc(F)c(Br)c1)C1=C(CNC1=O)N2 (stereo not shown) [Example 27, 9-(3-bromo-4-fluorophenyl)-2,3,5,9-tetrahydropyrano[3,4-b]pyrrolo[3,4-e]pyridine-1,8(4H,7H)-dione]
- EC50 [1]: 970 nM
- Emax [1]: 87%
- melting point: > 260 °C

Compound: CC1(C)CCC2=C(C1=O)C(c1ccc(F)c(Br)c1)C1=C(COCC1=O)N2 (stereo not shown) [Example 41, 5-(3-bromo-4-fluorophenyl)-7,7-dimethyl-5,8,9,10-tetrahydro-1H-pyrano[3,4-b]quinoline-4,6(3H,7H)-dione]
- EC50 [1]: 71 nM
- Emax [1]: 66%
- melting point: > 260 °C

Compound: CC1(C)OC(=O)C2=C1NC1=C(C(=O)COC1)C2c1ccc(F)c(Br)c1 (stereo not shown) [Example 99, 9-(3-bromo-4-fluorophenyl)-3,3-dimethyl-5,9-dihydro-3H-furo[3,4-b]pyrano[4,3-e]pyridine-1,8(4H,7H)-dione]
- melting point: > 260 °C
